Assay type in all cases: functional
Assay [1] deals with Salmonella typhi. Briefly: Antibacterial activity against Salmonella enterica subsp. enterica serovar Typhi MTCC 98 after 24 hr by broth microdilution method. The settings on record: MTCC 98, 24 h. On the technique in general: In broth dilution the organism is exposed to a series of concentrations in liquid medium.
Assay [2] concerns Streptococcus pneumoniae. Briefly: Antibacterial activity against Streptococcus pneumoniae MTCC 1936 after 24 hr by broth microdilution method. The settings on record: MTCC 1936, 24 h.
For assay [3], the system named is Clostridium tetani. Put plainly: Antibacterial activity against Clostridium tetani MTCC 449 after 24 hr by broth microdilution method. Particulars: MTCC 449, 24 h.
Assay [4] has as its system Candida albicans. Put plainly: Antifungal activity against Candida albicans MTCC 227 after 48 hr by broth microdilution method.
Assay [5] concerns Vibrio cholerae. Briefly: Antibacterial activity against Vibrio cholerae MTCC 3906 after 24 hr by broth microdilution method. The settings on record: MTCC 3906, 24 h.
The test system of assay [6] is Bacillus subtilis. Put plainly: Antibacterial activity against Bacillus subtilis MTCC 441 after 24 hr by broth microdilution method. The settings on record: MTCC 441, 24 h.
For assay [7], the system named is Aspergillus fumigatus. Briefly: Antifungal activity against Aspergillus fumigatus MTCC 3008 after 48 hr by broth microdilution method.
In assay [8] the test system is Escherichia coli. Briefly: Antibacterial activity against Escherichia coli MTCC 443 after 24 hr by broth microdilution method. The settings on record: MTCC 443, 24 h.

In brackets after ≈: the same amount, converted by molar mass.

On to `Cc1ccc(Sc2nc(N)c(C#N)c(-c3cc4ccccc4nc3Sc3ccccc3)c2C#N)cc1`, for which the MIC was 125 µg/mL (≈ 249 µM) in assay [1]; 250 µg/mL (≈ 498 µM) in assay [2]; 250 µg/mL (≈ 498 µM) in assay [3]; 1000 µg/mL (≈ 1990 µM) in assay [4] (MTCC 227, 48 h); 250 µg/mL (≈ 498 µM) in assay [5]; 200 µg/mL (≈ 399 µM) in assay [6]. Besides, the MIC stood at 250 µg/mL (≈ 498 µM) in assay [7] (MTCC 3008, 48 h) and 100 µg/mL (≈ 199 µM) in assay [8].
On to `Cc1ccc2nc(Sc3ccc(Cl)cc3)c(C=O)cc2c1`, for which the minimum inhibitory concentration (MIC) in assay [1] was 125 µg/mL (≈ 398 µM); in assay [2] it was 500 µg/mL (≈ 1590 µM); in assay [3], 500 µg/mL (≈ 1590 µM); in assay [4] (MTCC 227, 48 h), 200 µg/mL (≈ 637 µM); in assay [5], 100 µg/mL (≈ 319 µM); in assay [6], 500 µg/mL (≈ 1590 µM). The MIC in assay [7] (MTCC 3008, 48 h) worked out at 1000 µg/mL (≈ 3190 µM); in assay [8], 100 µg/mL (≈ 319 µM).
Turning to `O=Cc1cc2ccccc2nc1Sc1ccccc1`, the MIC in assay [1] was determined as 250 µg/mL (≈ 942 µM); in assay [2] it was 200 µg/mL (≈ 754 µM); in assay [3] it was 250 µg/mL (≈ 942 µM); in assay [4] (MTCC 227, 48 h), 250 µg/mL (≈ 942 µM); in assay [5] it was 200 µg/mL (≈ 754 µM); in assay [6] it was 200 µg/mL (≈ 754 µM). The MIC in assay [7] (MTCC 3008, 48 h) came to 1000 µg/mL (≈ 3770 µM); in assay [8], 200 µg/mL (≈ 754 µM).
As to `Cc1ccc2nc(Sc3ccccc3)c(C=O)cc2c1`, the minimum inhibitory concentration (MIC) in assay [1] is 200 µg/mL (≈ 716 µM); in assay [2], 500 µg/mL (≈ 1790 µM); in assay [3], 250 µg/mL (≈ 895 µM); in assay [4] (MTCC 227, 48 h) it was above 1000 µg/mL; in assay [5] it was 250 µg/mL (≈ 895 µM); in assay [6] it was 500 µg/mL (≈ 1790 µM). Further, the minimal inhibitory concentration (MIC) in assay [7] (MTCC 3008, 48 h) is above 1000 µg/mL; in assay [8], 200 µg/mL (≈ 716 µM).
As to `Cc1ccc(Sc2nc3ccc(C)cc3cc2-c2c(C#N)c(N)nc(Sc3ccc(C)cc3)c2C#N)cc1`, the MIC was 125 µg/mL (≈ 236 µM) in assay [1]; 200 µg/mL (≈ 378 µM) in assay [2]; 250 µg/mL (≈ 472 µM) in assay [3]; 250 µg/mL (≈ 472 µM) in assay [4] (MTCC 227, 48 h); 250 µg/mL (≈ 472 µM) in assay [5]; 100 µg/mL (≈ 189 µM) in assay [6]. Besides, the MIC in assay [7] (MTCC 3008, 48 h) amounted to 1000 µg/mL (≈ 1890 µM); in assay [8], 200 µg/mL (≈ 378 µM).
With `Cc1ccc(Sc2nc(N)c(C#N)c(-c3cc4cc(C)ccc4nc3Sc3ccccc3)c2C#N)cc1`, the MIC in assay [1] stood at 100 µg/mL (≈ 194 µM); in assay [2], 250 µg/mL (≈ 485 µM); in assay [3], 200 µg/mL (≈ 388 µM); in assay [4] (MTCC 227, 48 h) it was 1000 µg/mL (≈ 1940 µM); in assay [5], 500 µg/mL (≈ 970 µM); in assay [6], 500 µg/mL (≈ 970 µM). Besides, the MIC in assay [7] (MTCC 3008, 48 h) amounted to 500 µg/mL (≈ 970 µM); in assay [8], 250 µg/mL (≈ 485 µM).
For `COC1=CC(=O)C[C@@H](C)[C@]12Oc1c(Cl)c(OC)cc(OC)c1C2=O` [GRISEOFULVIN], the MIC amounted to 500 µg/mL (≈ 1420 µM) in assay [4] (MTCC 227, 48 h) and 100 µg/mL (≈ 283 µM) in assay [7] (MTCC 3008, 48 h).
In the case of `Cc1ccc2nc(Sc3ccccc3)c(-c3c(C#N)c(N)nc(Sc4ccccc4)c3C#N)cc2c1`, the MIC in assay [1] was 200 µg/mL (≈ 399 µM); in assay [2], 250 µg/mL (≈ 498 µM); in assay [3] it was 250 µg/mL (≈ 498 µM); in assay [4] (MTCC 227, 48 h), 1000 µg/mL (≈ 1990 µM); in assay [5] it was 250 µg/mL (≈ 498 µM); in assay [6], 250 µg/mL (≈ 498 µM). Besides, the MIC came out at 250 µg/mL (≈ 498 µM) in assay [7] (MTCC 3008, 48 h) and 200 µg/mL (≈ 399 µM) in assay [8].
As to `Cc1ccc(Sc2nc(N)c(C#N)c(-c3cc4ccccc4nc3Sc3ccc(Cl)cc3)c2C#N)cc1`, the MIC stood at 100 µg/mL (≈ 187 µM) in assay [1]; 200 µg/mL (≈ 373 µM) in assay [2]; 250 µg/mL (≈ 466 µM) in assay [3]; 250 µg/mL (≈ 466 µM) in assay [4] (MTCC 227, 48 h); 200 µg/mL (≈ 373 µM) in assay [5]; 100 µg/mL (≈ 187 µM) in assay [6]. For the same compound, the MIC in assay [7] (MTCC 3008, 48 h) was above 1000 µg/mL; in assay [8], 62.5 µg/mL (≈ 117 µM).
With NYSTATIN, the MIC in assay [4] and in assay [7] was 100 µg/mL in each case.
Regarding `Cc1ccc2nc(Sc3ccccc3)c(-c3c(C#N)c(N)nc(Sc4ccc(Cl)cc4)c3C#N)cc2c1`, the minimum inhibitory concentration (MIC) in assay [1] is 100 µg/mL (≈ 187 µM); in assay [2], 500 µg/mL (≈ 933 µM); in assay [3], 200 µg/mL (≈ 373 µM); in assay [4] (MTCC 227, 48 h) it was above 1000 µg/mL; in assay [5], 200 µg/mL (≈ 373 µM); in assay [6] it was 500 µg/mL (≈ 933 µM). Besides, the MIC in assay [7] (MTCC 3008, 48 h) was found to be 250 µg/mL (≈ 466 µM); in assay [8], 50 µg/mL (≈ 93.3 µM).
Consider `N#Cc1c(N)nc(Sc2ccc(Cl)cc2)c(C#N)c1-c1cc2ccccc2nc1Sc1ccccc1`, for which the MIC in assay [1] is 250 µg/mL (≈ 479 µM); in assay [2] it was 500 µg/mL (≈ 958 µM); in assay [3], 200 µg/mL (≈ 383 µM); in assay [4] (MTCC 227, 48 h), 1000 µg/mL (≈ 1920 µM); in assay [5] it was 250 µg/mL (≈ 479 µM); in assay [6], 250 µg/mL (≈ 479 µM). Moreover, the MIC in assay [7] (MTCC 3008, 48 h) worked out at 1000 µg/mL (≈ 1920 µM); in assay [8], 250 µg/mL (≈ 479 µM).
In the case of `Cc1ccc(Sc2nc(N)c(C#N)c(-c3cc4cc(C)ccc4nc3Sc3ccc(Cl)cc3)c2C#N)cc1`, the MIC in assay [1] was 200 µg/mL (≈ 364 µM); in assay [2] it was 100 µg/mL (≈ 182 µM); in assay [3], 250 µg/mL (≈ 454 µM); in assay [4] (MTCC 227, 48 h), above 1000 µg/mL; in assay [5] it was 250 µg/mL (≈ 454 µM); in assay [6], 100 µg/mL (≈ 182 µM). For the same compound, the MIC in assay [7] (MTCC 3008, 48 h) worked out at 250 µg/mL (≈ 454 µM); in assay [8], 200 µg/mL (≈ 364 µM).
`CCn1cc(C(=O)O)c(=O)c2cc(F)c(N3CCNCC3)cc21` [NORFLOXACIN]: the MIC is 10 µg/mL (≈ 31.3 µM) in assay [1]; 10 µg/mL (≈ 31.3 µM) in assay [2]; 50 µg/mL (≈ 157 µM) in assay [3]; 10 µg/mL (≈ 31.3 µM) in assay [5]; 100 µg/mL (≈ 313 µM) in assay [6]; 10 µg/mL (≈ 31.3 µM) in assay [8].

By MIC is commonly meant the lowest concentration that inhibits growth of the organism. A high value points to weaker potency.

The record behind these values is ChEMBL document CHEMBL3045635, “Synthesis and in vitro antimicrobial evaluation of novel 2-amino-6-(phenylthio)-4-(2-(phenylthio)quinolin-3-yl)pyridine-3,5-dicarbonitriles” (2013).
